Assay results published in article PMC2529273, “Pharmacological Properties of DOV 315,090, an ocinaplon metabolite” (BMC Pharmacology, 2008).
Read-outs that look alike come from different tables or passages of the source.

Assays:
[1] = target: T1, α1β2γ2S GABAA-R (Rattus norvegicus, UniProt P18508+P62813); experiment: cell-based
Protocol: (§1) cRNAs encoding GABAA-R α1, α2, α3, α5, β2 and γ2S subunits were injected into oocytes from Xenopus laevis. […] GABA (Sigma) was prepared as a 1 M stock solution in ND96. Microelectrodes of 1–3 MΩ when filled with 3 M KCl were used to record from oocytes in a recording chamber continuously perfused with ND-96 buffer solution. During data acquisition, oocytes were clamped at a holding potential of -70 mV. Drugs were applied by perfusion at a rate of approximately 50 μl sec^-1 for 20 s followed by a 120 s wash. […] All experiments were performed at room temperature (22–24°C).
(§2) GABA concentration-response data was obtained for each subunit combination, and the GABA EC10 was determined by nonlinear regression using the logistic equation. This concentration of GABA was used for modulation studies. Peak current measurements were normalized and expressed as a fraction of the peak control current measurements. Control responses to an EC10 concentration of GABA were re-determined after every 2 – 4 applications of modulator + GABA. […] Potentiation data from each oocyte was fitted to the equation Potentiation = Emax × [Drug]/([Drug + EC50) by non-linear regression (Prism, Graph-Pad software). […] Given the lack of consistency of this possible high affinity effect, we have omitted it in fitting our concentration-effect curves. The choice of fitting to a monophasic or biphasic equation had only a small effect on the EC50 for the major component of modulation.
(§3) Rat GABAA-Rs consisting of α1β2γ2S, α2β2γ2S, α3β2γ2S and α5β2γ2S subunits were expressed in Xenopus oocytes. […] Higher concentrations (in parentheses) were excluded from the fit due to a decline in potentiation at higher concentrations.

[2] = target: T2, α2β2γ2S GABAA-R (Rattus norvegicus, UniProt P18508+P23576); experiment: cell-based
Protocol: as §1, §2, §3

[3] = target: T3, α5β2γ2S GABAA-R (Rattus norvegicus, UniProt P18508+P19969); experiment: cell-based
Protocol: as §1, §2, §3

[4] = target: T4, α3β2γ2S GABAA-R (Rattus norvegicus, UniProt P18508+P20236); experiment: cell-based; assay type: cell-based
Protocol: as §1, §2, §3

[5] = target: T5, α2β2γ3 GABAA-R (Rattus norvegicus, UniProt P23576+P28473); experiment: biochemical; assay type: binding
T5 construct: expressed in transfected cells; host or cells: HEK293 (CRL 1573), transient transfection
Protocol: (§4) HEK293 cells (CRL 1573, American type Culture Collection, Rockville, MD, USA) were cultured in Dulbecco's modified Eagle's medium (D-MEM, Invitrogen, Carlsbad, CA, USA) supplemented with 10% fetal bovine serum (Invitrogen, Carlsbad, CA, USA) and 1% MEM Non-Essential Amino Acids Solution (Invitrogen, Carlsbad, CA, USA). cDNAs encoding rat GABAA-R subunits were in the following vectors: α1 and α5 in pRc/CMV, α2, α3, γ2S and γ3 in pcDNA3 and β2 in pcDNA1. The cells were transiently transfected (5 μg of each cDNA per 100 mm dish) using FuGene™ (Roche Diagnostics Corporation) at a 3:1 FuGene:DNA ratio. […] Forty-eight hours after transfection, cells were washed with ice-cold PBS, harvested and homogenized. Cell homogenates were centrifuged (100,000 g, 25 min) and washed three times by homogenization in ice-cold PBS buffer followed by centrifugation at 100,000 g for 25 min. The final pellets were stored at -20°C until needed.
(§5) The samples were then diluted with 5 ml of ice-cold buffer and filtered under vacuum through glass-fiber filters (GF/B Whatman). Filters were washed 3 times with 5 ml of buffer and the radioactivity was quantitated by liquid scintillation counting in 5 ml of Ecolite scintillation fluid (ICN). Non-specific binding determined in the presence of 100 μM Ro 15–1788 (Sigma-Aldrich) was subtracted from total binding to calculate specific binding. Data were analyzed by non-linear regression (Prism, Graph-Pad software).

[6] = target: T6, α5β2γ3 GABAA-R (Rattus norvegicus, UniProt P19969+P28473); experiment: biochemical; assay type: binding
T6 construct: expressed in transfected cells; host or cells: HEK293 (CRL 1573), transient transfection
Protocol: as §4, §5

[7] = target: T1, α1β2γ2S GABAA-R; experiment: biochemical; assay type: binding
Protocol: as §4, §5

[8] = target: T2, α2β2γ2S GABAA-R; experiment: biochemical; assay type: binding
Protocol: as §4, §5

[9] = target: T7, α1β2γ3 GABAA-R (Rattus norvegicus, UniProt P28473+P62813); experiment: biochemical; assay type: binding
T7 construct: expressed in transfected cells; host or cells: HEK293 (CRL 1573), transient transfection
Protocol: as §4, §5

[10] = target: T3, α5β2γ2S GABAA-R; experiment: biochemical; assay type: binding
Protocol: as §4, §5

[11] = target: T4, α3β2γ2S GABAA-R; experiment: biochemical; assay type: binding
Protocol: as §4, §5

[12] = in vivo; assay type: in vivo, rat; details: in vivo; rat, one animal excluded from the plot, 10 min after oral 5 mg/kg ocinaplon, may have regurgitated part of the dose; read-out: blood level
Protocol: At 1 h, corresponding to the time at which the anticonflict effect of ocinaplon was evaluated, the plasma concentration of DOV 315,090 is ~38% of the concentration of parent compound.
Figure 2 Pharmacokinetics of ocinaplon and DOV 315,090. Blood levels of ocinaplon (●,○) and DOV 315090 (▲,△) were determined at various times after i.v. (●,▲) or oral (○,△) administration of 5 mg/kg ocinaplon to rats. […] This animal may have regurgitated a portion of the dose (of the suspension).

[13] = [3H]Ro15-1788 displacement, n = 3, read-out: IC50
[14] = mean ± SEM, n = 3, read-out: pIC50 (converted)

T5 sequence (P23576 29-451): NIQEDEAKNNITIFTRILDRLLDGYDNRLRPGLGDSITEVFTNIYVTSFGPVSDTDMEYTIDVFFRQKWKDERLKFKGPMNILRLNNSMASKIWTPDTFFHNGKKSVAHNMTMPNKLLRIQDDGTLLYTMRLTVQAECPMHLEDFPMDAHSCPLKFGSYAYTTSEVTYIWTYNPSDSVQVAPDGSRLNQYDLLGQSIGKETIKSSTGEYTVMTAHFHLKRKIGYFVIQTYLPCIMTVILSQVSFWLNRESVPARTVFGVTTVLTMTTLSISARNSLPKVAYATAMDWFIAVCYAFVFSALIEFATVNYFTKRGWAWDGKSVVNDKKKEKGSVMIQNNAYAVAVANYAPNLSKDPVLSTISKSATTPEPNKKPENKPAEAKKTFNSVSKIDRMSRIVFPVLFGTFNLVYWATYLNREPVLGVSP
T5 sequence (P63138 25-474 partner limits assumed): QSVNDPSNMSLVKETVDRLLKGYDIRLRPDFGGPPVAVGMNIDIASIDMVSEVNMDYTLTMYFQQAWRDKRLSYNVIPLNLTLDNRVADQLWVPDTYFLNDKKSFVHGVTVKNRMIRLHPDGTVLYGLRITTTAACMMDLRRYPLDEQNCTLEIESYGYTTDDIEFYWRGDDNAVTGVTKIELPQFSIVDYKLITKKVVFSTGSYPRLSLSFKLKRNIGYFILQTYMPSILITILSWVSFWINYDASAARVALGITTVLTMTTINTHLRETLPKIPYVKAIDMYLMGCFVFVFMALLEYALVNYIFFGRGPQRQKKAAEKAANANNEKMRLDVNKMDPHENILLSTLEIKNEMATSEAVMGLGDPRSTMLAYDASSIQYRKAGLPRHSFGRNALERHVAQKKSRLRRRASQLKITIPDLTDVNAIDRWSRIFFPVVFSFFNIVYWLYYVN
T5 sequence (P28473 18-467): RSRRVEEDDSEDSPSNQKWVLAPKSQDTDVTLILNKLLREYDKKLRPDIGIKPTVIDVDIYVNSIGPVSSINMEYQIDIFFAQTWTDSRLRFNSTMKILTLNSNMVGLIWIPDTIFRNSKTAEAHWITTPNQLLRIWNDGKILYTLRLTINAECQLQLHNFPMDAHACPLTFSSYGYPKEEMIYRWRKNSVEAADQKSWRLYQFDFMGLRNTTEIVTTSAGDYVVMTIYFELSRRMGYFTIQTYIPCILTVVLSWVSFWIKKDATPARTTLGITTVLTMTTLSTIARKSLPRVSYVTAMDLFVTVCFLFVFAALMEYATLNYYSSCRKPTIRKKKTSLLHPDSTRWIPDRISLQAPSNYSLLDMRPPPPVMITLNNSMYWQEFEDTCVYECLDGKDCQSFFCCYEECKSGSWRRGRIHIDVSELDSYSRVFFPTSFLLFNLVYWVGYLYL
T2 sequence (P23576 29-451): as the sequence (P23576 29-451) above
T2 sequence (P63138 25-474 partner limits assumed): as the sequence (P63138 25-474 partner limits assumed) above
T2 sequence (P18508 39-466): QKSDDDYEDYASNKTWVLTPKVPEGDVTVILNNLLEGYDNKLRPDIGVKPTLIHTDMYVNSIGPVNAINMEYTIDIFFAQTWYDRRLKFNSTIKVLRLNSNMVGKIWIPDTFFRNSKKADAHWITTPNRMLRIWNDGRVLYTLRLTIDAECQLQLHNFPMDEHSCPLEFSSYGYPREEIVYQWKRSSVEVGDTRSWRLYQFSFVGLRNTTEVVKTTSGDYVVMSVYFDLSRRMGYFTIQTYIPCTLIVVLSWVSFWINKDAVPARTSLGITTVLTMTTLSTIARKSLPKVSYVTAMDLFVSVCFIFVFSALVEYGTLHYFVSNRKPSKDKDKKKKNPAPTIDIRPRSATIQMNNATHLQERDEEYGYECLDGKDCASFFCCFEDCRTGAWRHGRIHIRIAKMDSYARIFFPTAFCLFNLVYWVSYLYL
T1 sequence (P62813 28-455): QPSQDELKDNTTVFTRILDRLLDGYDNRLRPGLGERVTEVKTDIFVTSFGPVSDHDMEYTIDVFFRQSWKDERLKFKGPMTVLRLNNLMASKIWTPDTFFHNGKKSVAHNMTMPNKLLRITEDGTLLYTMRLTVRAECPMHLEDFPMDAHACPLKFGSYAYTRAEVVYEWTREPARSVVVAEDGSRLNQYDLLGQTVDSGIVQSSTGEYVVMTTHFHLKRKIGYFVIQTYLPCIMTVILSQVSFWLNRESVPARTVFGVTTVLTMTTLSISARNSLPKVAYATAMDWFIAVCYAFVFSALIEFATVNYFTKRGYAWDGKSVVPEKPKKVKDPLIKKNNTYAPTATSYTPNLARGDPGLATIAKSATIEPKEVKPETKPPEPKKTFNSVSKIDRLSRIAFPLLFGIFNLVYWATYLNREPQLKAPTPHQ
T1 sequence (P63138 25-474 partner limits assumed): as the sequence (P63138 25-474 partner limits assumed) above
T1 sequence (P18508 39-466): as the sequence (P18508 39-466) above
T7 sequence (P62813 28-455): as the sequence (P62813 28-455) above
T7 sequence (P63138 25-474 partner limits assumed): as the sequence (P63138 25-474 partner limits assumed) above
T7 sequence (P28473 18-467): as the sequence (P28473 18-467) above
T6 sequence (P19969 32-464 limits assumed): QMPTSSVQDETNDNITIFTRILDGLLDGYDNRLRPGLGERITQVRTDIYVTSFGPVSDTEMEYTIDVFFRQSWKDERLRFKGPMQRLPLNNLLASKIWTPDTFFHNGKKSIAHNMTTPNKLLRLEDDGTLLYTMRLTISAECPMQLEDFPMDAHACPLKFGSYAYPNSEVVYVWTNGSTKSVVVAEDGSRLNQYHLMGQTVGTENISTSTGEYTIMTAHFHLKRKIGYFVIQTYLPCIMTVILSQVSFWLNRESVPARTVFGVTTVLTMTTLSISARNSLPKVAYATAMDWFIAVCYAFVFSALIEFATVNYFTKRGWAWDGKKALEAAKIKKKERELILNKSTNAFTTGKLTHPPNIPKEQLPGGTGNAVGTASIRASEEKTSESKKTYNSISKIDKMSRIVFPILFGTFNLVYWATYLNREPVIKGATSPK
T6 sequence (P63138 25-474 partner limits assumed): as the sequence (P63138 25-474 partner limits assumed) above
T6 sequence (P28473 18-467): as the sequence (P28473 18-467) above
T3 sequence (P19969 32-464 limits assumed): as the sequence (P19969 32-464 limits assumed) above
T3 sequence (P63138 25-474 partner limits assumed): as the sequence (P63138 25-474 partner limits assumed) above
T3 sequence (P18508 39-466): as the sequence (P18508 39-466) above
T4 sequence (P20236 29-493): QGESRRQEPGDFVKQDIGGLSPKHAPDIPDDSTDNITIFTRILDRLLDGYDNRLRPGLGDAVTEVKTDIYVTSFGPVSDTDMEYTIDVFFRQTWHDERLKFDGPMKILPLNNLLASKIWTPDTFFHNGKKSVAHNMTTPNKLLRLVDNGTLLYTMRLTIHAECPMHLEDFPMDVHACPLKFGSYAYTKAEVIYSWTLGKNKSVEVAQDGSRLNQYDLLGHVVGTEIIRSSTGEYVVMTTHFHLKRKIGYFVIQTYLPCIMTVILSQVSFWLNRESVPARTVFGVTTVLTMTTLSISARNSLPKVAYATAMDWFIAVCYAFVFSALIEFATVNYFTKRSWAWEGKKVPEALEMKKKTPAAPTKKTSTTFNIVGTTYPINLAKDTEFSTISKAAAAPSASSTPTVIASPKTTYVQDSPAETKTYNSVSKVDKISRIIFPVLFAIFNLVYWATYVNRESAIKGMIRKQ
T4 sequence (P63138 25-474 partner limits assumed): as the sequence (P63138 25-474 partner limits assumed) above
T4 sequence (P18508 39-466): as the sequence (P18508 39-466) above

## CN1C(=O)CN=C(c2ccccc2)c2cc(Cl)ccc21 [diazepam, reference compound]
[1]
  Emax: 144 ± 8%
[2]
  Emax: 157 ± 14%
[3]
  Emax: 224 ± 24%
[4]
  Emax: 232 ± 31%

## O=C(c1ccccn1)c1cnn2c(-c3ccncc3)ccnc12 [ocinaplon, 2-pyridinyl [7-(4-pyridinyl)pyrazolo[1,5-a]pyrimidin-3-yl]methanone]
[5]; [3H]Ro15-1788 displacement, α2β2γ3, n = 3, read-out: IC50
  IC50: 20 µM
[5]; α2β2γ3, mean ± SEM, n = 3, read-out: pIC50 (converted)
  IC50: 18.2 µM
[5]; α2β2γ3, ratio to diazepam IC50
  IC50/DZ IC50: 115
[6]; [3H]Ro15-1788 displacement, α5β2γ3, n = 3, read-out: IC50
  IC50: 10 µM
[6]; α5β2γ3, mean ± SEM, n = 3, read-out: pIC50 (converted)
  IC50: 9.77 µM
[6]; α5β2γ3, ratio to diazepam IC50
  IC50/DZ IC50: 120
[7]; [13]
  IC50: 6.3 µM
[7]; ratio to diazepam IC50
  IC50/DZ IC50: 218
[8]; [14]
  IC50: 24 µM
[8]; ratio to diazepam IC50
  IC50/DZ IC50: 759
[9]; [3H]Ro15-1788 displacement, α1β2γ3, n = 3, read-out: IC50
  IC50: 2.3 µM
[9]; α1β2γ3, mean ± SEM, n = 3, read-out: pIC50 (converted)
  IC50: 2.24 µM
[9]; α1β2γ3, ratio to diazepam IC50
  IC50/DZ IC50: 10.5
[10]; [13]
  IC50: 9.6 µM
[10]; ratio to diazepam IC50
  IC50/DZ IC50: 355
[11]; [13]
  IC50: 7.7 µM
[11]; [14]
  IC50: 7.59 µM
[11]; ratio to diazepam IC50
  IC50/DZ IC50: 158
[1]
  Emax: 132 ± 8%
[1]; α1β2γ2S, GABA EC10, mean ± SEM, read-out: pEC50 (converted)
  EC50: 2.69 µM
[1]; α1β2γ2S, GABA EC10, number of oocytes in parentheses, read-out: EC50
  EC50: 2.93 µM
[1]; α1β2γ2S, ratio to diazepam EC50
  EC50/DZ EC50: 77
[1]; α1β2γ2S, ratio to diazepam Emax
  Emax/DZ Emax: 0.91
[2]
  Emax: 150 ± 6%
[2]; α2β2γ2S, GABA EC10, number of oocytes in parentheses, read-out: EC50
  EC50: 9.12 µM
[2]; α2β2γ2S, ratio to diazepam EC50
  EC50/DZ EC50: 350
[2]; α2β2γ2S, ratio to diazepam Emax
  Emax/DZ Emax: 0.95
[3]
  Emax: 84 ± 4%
[3]; α5β2γ2S, GABA EC10, mean ± SEM, read-out: pEC50 (converted)
  EC50: 3.31 µM
[3]; α5β2γ2S, GABA EC10, number of oocytes in parentheses, read-out: EC50
  EC50: 3.5 µM
[3]; α5β2γ2S, ratio to diazepam EC50
  EC50/DZ EC50: 139
[3]; α5β2γ2S, ratio to diazepam Emax
  Emax/DZ Emax: 0.37
[12]
  concentration at 10 min: 470 ng/mL
[4]
  Emax: 181 ± 18%
[4]; α3β2γ2S, GABA EC10, mean ± SEM, read-out: pEC50 (converted)
  EC50: 6.92 µM
[4]; α3β2γ2S, GABA EC10, number of oocytes in parentheses, read-out: EC50
  EC50: 8.01 µM
[4]; α3β2γ2S, ratio to diazepam EC50
  EC50/DZ EC50: 87
[4]; α3β2γ2S, ratio to diazepam Emax
  Emax/DZ Emax: 0.78
